Reference: US8034812B2, “Imidazopyridazine derivative having kinase inhibitory activity and pharmaceutical agent thereof” (Takeda Pharmaceutical Company Limited, priority 2006, dated 2011)

Key:
[1] = target: T1, VEGFR2 intracellular domain protein (Homo sapiens, UniProt P35968); assay: Determination of vascular endothelial growth factor receptor 2 (VEGFR2) kinase inhibitory activity (AlphaScreen); type: biochemical; details: read-out: VEGFR2 kinase inhibitory rate
T1 construct: made in house; host or cells: SF-21 insect cells, recombinant baculovirus BAC-VEGFR2
T1 sequence (P35968 786-1356 limits assumed): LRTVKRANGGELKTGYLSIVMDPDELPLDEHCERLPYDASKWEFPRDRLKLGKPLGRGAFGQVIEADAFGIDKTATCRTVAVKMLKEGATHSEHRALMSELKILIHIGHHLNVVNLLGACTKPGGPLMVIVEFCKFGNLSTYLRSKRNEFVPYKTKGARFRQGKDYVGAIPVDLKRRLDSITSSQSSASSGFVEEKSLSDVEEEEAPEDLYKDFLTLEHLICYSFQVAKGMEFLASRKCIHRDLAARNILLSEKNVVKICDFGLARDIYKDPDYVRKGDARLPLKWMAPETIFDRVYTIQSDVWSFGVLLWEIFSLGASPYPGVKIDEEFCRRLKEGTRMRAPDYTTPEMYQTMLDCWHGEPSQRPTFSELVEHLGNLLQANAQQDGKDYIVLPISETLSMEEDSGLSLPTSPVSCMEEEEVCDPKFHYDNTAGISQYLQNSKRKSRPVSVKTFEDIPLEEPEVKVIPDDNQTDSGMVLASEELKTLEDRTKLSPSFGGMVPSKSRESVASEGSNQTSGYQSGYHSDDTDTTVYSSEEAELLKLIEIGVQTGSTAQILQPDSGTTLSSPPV
Procedure: Human vascular endothelial growth factor receptor 2 (hereinafter to be referred to as VEGFR2) gene was cloned by PCR using cDNA Libraries Human Placenta (Clontech) as a template. The primer used for PCR was prepared from base sequence (Genbank Accession AF035121) information of VEGFR2 gene by adding a base sequence encoding flag peptide and a recognition sequence of the restriction enzyme to a base sequence (2671-4374 of Genbank Accession AF035121) encoding the VEGFR2 intracellular domain region, so that the protein contains an N-terminal Flag tag. The primer base sequence is shown below.
SF-21 cells were sown at 1×10^6 cells/mL to Sf-900II SFM medium (1 L, Invitrogen) containing 10% fetal bovine serum (trace), 50 mg/L Gentamicin (Invitrogen) and 0.1% Pluronic F-68 (Invitrogen), and shaking culture was performed using a 2 L volume Erlenmeyer flask at 27° C., 100 rpm. After culturing for 24 hrs, recombinant baculovirus BAC-VEGFR2 (13.4 mL) was added to the mixture, and the mixture was further cultured for 3 days. The culture medium was centrifuged at 2,000 rpm for 5 min to give virus-infected cells. The infected cells were washed with a phosphate buffered saline (Invitrogen), centrifuged under the same conditions, and the cells were preserved at −80° C. The cryopreserved cells were thawed in ice, suspended in buffer A (50 mM Tris buffer (30 mL, pH 7.4) containing 20% glycerol, 0.15 M NaCl) supplemented with Complete Protease Inhibitor (Boehringer), and ruptured 3 times with a Polytron homogenizer (Kinematica) at 20,000 rpm for 30 sec. The ruptured medium was clarified by centrifugation at 40,000 rpm for 30 min and filtered with a 0.45 μm filter. The filtrate was passed through a column packed with Anti-FLAG M2 Affinity Gel (4 mL, Sigma) at a flow rate of about 0.5 mL/min. The column was washed with buffer A, and eluted with buffer A containing 100 μg/mL of FLAG peptide. The eluate was concentrated with Vivaspin 20 (Vivascience) having a molecular weight cut off of 30K. The buffer of this concentrate was exchanged using NAP™ 25 column (Amersham Bioscience) equilibrated with buffer A. The fractions containing intracellular domain protein of VEGFR2 were collected, glycerol was added to the final concentration of 50% and cryopreserved at −80° C.
A test compound dissolved in dimethyl sulfoxide (DMSO) was diluted with a buffer (50 mM Tris-HCl (pH 7.5), 5 mM MgCl2, 5 mM MnCl2, 2 mM dithiothreitol, 0.01% Tween-20). To this compound solution (5 μL) was added a buffer (10 μL) containing 50 ng/mL of VEGFR2 intracellular domain protein and 250 ng/mL of biotin labeled polypeptide biotinyl-poly-Glu:Tyr (4:1) (CIS bio International). To the obtained mixture was added a buffer (10 μL) containing ATP (25 μM), the mixture was allowed to react at 25° C. for 5 min and the reaction was quenched with 25 μL of a stop solution (100 mM EDTA disodium salt, 62.5 mM HEPES buffer (pH 7.4), 250 mM NaCl, 0.1% bovine serum albumin, 10 μg/mL AlphaScreen assay streptavidin donor beads (Streptavidin Donor beads: PerkinElmer), 10 μg/mL AlphaScreen assay anti-phosphotyrosine recognition antibody PY-100 binding acceptor beads (Anti-phosphotyrosine (P-Tyr-100) Acceptor beads: PerkinElmer)). The reaction solution was allowed to stand at 25° C. for 16 hrs, and the wells were counted using a plate reader Fusion™ (PerkinElmer). The kinase inhibitory rate (%) of the test compound was calculated by the following formula: Inhibitory rate(%)=(1−(count of test compound−blank)÷(control−blank))×100

[2] = target: T2, PDGFRβ intracellular domain protein (Homo sapiens, UniProt P09619); assay: Determination of platelet-derived growth factor receptor β (PDGFRβ) kinase inhibitory activity (AlphaScreen); type: biochemical
T2 construct: 125 ng/ml of PDGFRβ intracellular domain protein (UPSTATE); purchased UPSTATE
T2 sequence (P09619 554-1106 limits assumed): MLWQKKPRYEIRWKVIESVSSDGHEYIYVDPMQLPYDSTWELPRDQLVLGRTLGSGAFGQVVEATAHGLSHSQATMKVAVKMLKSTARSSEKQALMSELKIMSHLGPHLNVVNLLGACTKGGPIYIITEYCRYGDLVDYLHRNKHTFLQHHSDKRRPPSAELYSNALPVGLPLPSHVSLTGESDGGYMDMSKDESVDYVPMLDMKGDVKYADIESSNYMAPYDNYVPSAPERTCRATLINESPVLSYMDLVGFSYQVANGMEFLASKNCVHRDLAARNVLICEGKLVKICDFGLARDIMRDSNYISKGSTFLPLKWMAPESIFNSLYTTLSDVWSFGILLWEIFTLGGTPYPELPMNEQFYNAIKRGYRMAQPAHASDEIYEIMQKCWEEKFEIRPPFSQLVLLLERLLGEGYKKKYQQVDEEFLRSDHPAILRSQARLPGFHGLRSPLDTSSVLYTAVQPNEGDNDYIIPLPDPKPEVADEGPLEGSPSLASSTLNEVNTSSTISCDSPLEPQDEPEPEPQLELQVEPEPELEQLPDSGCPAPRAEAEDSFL
Procedure: (§1) A test compound dissolved in dimethyl sulfoxide (DMSO) was diluted with a buffer (50 mM Tris-HCl (pH 7.5), 5 mM MgCl2, 5 mM MnCl2, 2 mM dithiothreitol, 0.01% Tween-20). To this compound solution (5 μL) was added a buffer (10 μL) containing 125 ng/ml of PDGFRβ intracellular domain protein (UPSTATE) and 250 ng/mL of biotin labeled polypeptide biotinyl-poly-Glu:Tyr (4:1) (CIS bio International). At 5 min after mixing kinase enzyme and the compound and biotin labeled polypeptide, to the obtained mixture was added a buffer (10 μL) containing ATP (25 μM), the mixture was allowed to react at 25° C. for 30 min and the reaction was quenched with 25 μL of a stop solution (100 mM EDTA disodium salt, 62.5 mM HEPES buffer (pH 7.4), 250 mM NaCl, 0.1% bovine serum albumin, 10 μg/mL AlphaScreen assay streptavidin donor beads (Streptavidin Donor Beads: PerkinElmer), 10 μg/mL AlphaScreen assay anti-phosphotyrosine recognition antibody PT-66 binding acceptor beads (Anti-phosphotyrosine (P-Tyr-66) Acceptor beads: PerkinElmer)). The reaction solution was allowed to stand at 25° C. for 16 hrs, and the wells were counted using a plate reader Fusion™ (PerkinElmer). The kinase inhibitory rate (%) of the test compound was calculated by the following formula: Inhibitory rate(%)=(1−(count of test compound=blank)÷(control−blank))×100
(§2) The count of the solution reacted without addition of the compound was used as a “control”, and the count of the solution without the compound and ATP was used as a “blank”.

[3] = target: T3, PDGFRα intracellular domain protein (Homo sapiens, UniProt P16234); assay: Determination of platelet-derived growth factor receptor α (PDGFRα) kinase inhibitory activity (AlphaScreen); type: biochemical
T3 construct: 125 ng/ml of PDGFRα intracellular domain protein (UPSTATE); purchased UPSTATE
T3 sequence (P16234 550-1089 limits assumed): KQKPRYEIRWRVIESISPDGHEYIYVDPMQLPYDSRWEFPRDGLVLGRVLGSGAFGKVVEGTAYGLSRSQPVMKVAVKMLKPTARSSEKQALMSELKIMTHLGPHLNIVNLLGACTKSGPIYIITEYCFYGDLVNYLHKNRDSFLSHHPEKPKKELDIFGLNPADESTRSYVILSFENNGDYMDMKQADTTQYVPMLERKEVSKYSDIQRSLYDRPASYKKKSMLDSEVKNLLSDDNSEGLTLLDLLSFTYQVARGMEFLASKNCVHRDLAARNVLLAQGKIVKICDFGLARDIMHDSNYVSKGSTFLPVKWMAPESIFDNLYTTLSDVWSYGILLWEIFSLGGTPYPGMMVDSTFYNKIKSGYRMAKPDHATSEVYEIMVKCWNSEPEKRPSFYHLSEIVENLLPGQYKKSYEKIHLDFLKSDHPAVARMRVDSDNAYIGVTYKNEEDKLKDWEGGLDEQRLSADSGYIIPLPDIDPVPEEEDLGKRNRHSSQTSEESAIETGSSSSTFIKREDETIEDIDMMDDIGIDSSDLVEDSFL
Procedure: as §1, with “PDGFRα” for “PDGFRβ”, “beads:” for “Beads:”, “compound−blank)÷(control−blank))×100” for “compound=blank)÷(control−blank))×100”
as §2

[4] = tested on: Human umbilical vein-derived vascular endothelial cells (HUVEC); assay: Vascular endothelial cell growth inhibitory test (VEGF-stimulated HUVEC, XTT); type: cell-based; details: 120 h, 5 days of culture
Procedure: To be specific, HUVEC was suspended in a vascular endothelial cell medium containing the aforementioned 5% bovine fetal serum and plated on a 96 well flat bottom plate by 50 μL (3000 cells) each well. After culture overnight, various concentrations of the test substance and 120 ng/mL of vascular endothelial growth factor (VEGF) were dissolved in a vascular endothelial cell medium containing 5% bovine fetal serum and added to each well by 50 μL. After 5 days of culture, a XTT reagent (Wako Pure Chemical Industries, Ltd.) was added to each well by 10 μL, and the mixture was reacted in an incubator at 37° C., 5% carbon dioxide for 2-3 hr. The absorbance at 450 nm was measured by a microtiter plate reader and the cell growth inhibitory activity was determined.

Row | SMILES | inhibition at 1 µM [1] [%] | IC50 [2] [nM] | IC50 [3] [nM] | IC50 [4] [nM]
1 | Cc1nn(C)cc1C(=O)Nc1cc(Oc2ccc3nc(NC(=O)C4CC4)cn3n2)ccc1F [Example 173, N-[5-({2-[(cyclopropylcarbonyl)amino]imidazo[1,2-b]pyridazin-6-yl}oxy)-2-fluorophenyl]-1,3-dimethyl-1H-pyrazole-4-carboxamide] | ≥ 90 | ≤ 500 | ≤ 500 | ≤ 500
2 | CCn1nccc1C(=O)Nc1cc(Oc2ccc3nc(NC(=O)C4CC4)cn3n2)ccc1F [Example 174, N-[5-({2-[(cyclopropylcarbonyl)amino]imidazo[1,2-b]pyridazin-6-yl}oxy)-2-fluorophenyl]-1-ethyl-1H-pyrazole-5-carboxamide] | ≥ 90 | ≤ 500 | ≤ 500 | ≤ 500
3 | COc1cc(C(=O)Nc2cc(Oc3ccc4nc(NC(=O)C5CC5)cn4n3)ccc2F)n(C)n1 [Example 180, N-[5-({2-[(cyclopropylcarbonyl)amino]imidazo[1,2-b]pyridazin-6-yl}oxy)-2-fluorophenyl]-3-methoxy-1-methyl-1H-pyrazole-5-carboxamide] | ≥ 90 | ≤ 500 | ≤ 500 | ≤ 500
4 | Cc1cccnc1C(=O)Nc1cccc(Oc2ccc3nc(NC(=O)C4CC4)cn3n2)c1 [Example 187, N-[3-({2-[(cyclopropylcarbonyl)amino]imidazo[1,2-b]pyridazin-6-yl}oxy)phenyl]-3-methylpyridine-2-carboxamide] | ≥ 90 | ≤ 500 | ≤ 500 | ≤ 500
5 | CCc1cc(C(=O)Nc2cc(Oc3ccc4nc(NC(=O)C5CC5)cn4n3)ccc2F)n(C)n1 [Example 208, N-[5-({2-[(cyclopropylcarbonyl)amino]imidazo[1,2-b]pyridazin-6-yl}oxy)-2-fluorophenyl]-3-ethyl-1-methyl-1H-pyrazole-5-carboxamide] | ≥ 90 | ≤ 500 | ≤ 500 | ≤ 500
6 | CC#CC(=O)Nc1cc(Oc2ccc3nc(NC(=O)C4CC4)cn3n2)ccc1C [Example 241, N-{6-[3-(but-2-ynoylamino)-4-methylphenoxy]imidazo[1,2-b]pyridazin-2-yl}cyclopropanecarboxamide] | ≥ 90 | ≤ 500 | ≤ 500 | ≤ 500
7 | Cc1cc(C(=O)Nc2cc(Oc3ccc4nc(NC(=O)C5CC5C)cn4n3)ccc2F)n(C)n1 (stereo not drawn) [Example 243, N-{2-fluoro-5-[(2-{[(2-methylcyclopropyl)carbonyl]amino}imidazo[1,2-b]pyridazin-6-yl)oxy]phenyl}-1,3-dimethyl-1H-pyrazole-5-carboxamide] | ≥ 90 | ≤ 500 | ≤ 500 | ≤ 500
8 | CCc1cc(C(=O)Nc2cc(Oc3ccc4nc(NC(=O)C5CC5)cn4n3)ccc2Cl)n(C)n1 [Example 247, N-[2-chloro-5-({2-[(cyclopropylcarbonyl)amino]imidazo[1,2-b]pyridazin-6-yl}oxy)phenyl]-3-ethyl-1-methyl-1H-pyrazole-5-carboxamide] | ≥ 90 | ≤ 500 | ≤ 500 | ≤ 500
9 | Cc1nc(C)c(C(=O)Nc2cc(Oc3ccc4nc(NC(=O)C5CC5)cn4n3)ccc2F)s1 [Example 267, N-[5-({2-[(cyclopropylcarbonyl)amino]imidazo[1,2-b]pyridazin-6-yl}oxy)-2-fluorophenyl]-2,4-dimethyl-1,3-thiazole-5-carboxamide] | ≥ 90 | ≤ 500 | ≤ 500 | ≤ 500
10 | Cn1nccc1C(=O)Nc1cc(Oc2ccc3nc(NC(=O)C4CC4)cn3n2)ccc1F [Example 287, N-[5-({2-[(cyclopropylcarbonyl)amino]imidazo[1,2-b]pyridazin-6-yl}oxy)-2-fluorophenyl]-1-methyl-1H-pyrazole-5-carboxamide] | ≥ 90 | ≤ 500 | ≤ 500 | ≤ 500
11 | Cc1nc(C)c(C(=O)Nc2cc(Oc3ccc4nc(NC(=O)C5CC5)cn4n3)ccc2F)o1 [Example 289, N-[5-({2-[(cyclopropylcarbonyl)amino]imidazo[1,2-b]pyridazin-6-yl}oxy)-2-fluorophenyl]-2,4-dimethyl-1,3-oxazole-5-carboxamide] | ≥ 90 | ≤ 500 | ≤ 500 | ≤ 500
12 | Cc1ccc(Oc2ccc3nc(NC(=O)C4CC4)cn3n2)cc1NC(=O)c1scnc1C [Example 298, N-[5-({2-[(cyclopropylcarbonyl)amino]imidazo[1,2-b]pyridazin-6-yl}oxy)-2-methylphenyl]-4-methyl-1,3-thiazole-5-carboxamide] | ≥ 90 | ≤ 500 | ≤ 500 | ≤ 500
